Experimental data published in publication PMC10178848, “Modulating fast skeletal muscle contraction protects skeletal muscle in animal models of Duchenne muscular dystrophy” (The Journal of Clinical Investigation, 2023).

Tested on: GRMD plasma proteins
Type: in vivo, dog
Conditions: EDG-5506 treatment to GRMD baseline; Increased in GRMD

O=c1ccc(-c2cnc(OCC(F)(F)F)nc2)nn1Cc1cncc(F)c1 [EDG-5506]
Change from GRMD Baseline (fraction): Fibronectin Fragment 4 (FN1): -0.0853 fraction | Change from GRMD Baseline (fraction): Follistatin (FST): -0.1433 fraction | Change from GRMD Baseline (fraction): Fractalkine (CX3CL1): -0.1153 fraction | Change from GRMD Baseline (fraction): Fructose-bisphosphate aldolase A (ALDOA): 0.1605 fraction | Change from GRMD Baseline (fraction): G2/mitotic-specific cyclin-B1 (CCNB1): -0.0054 fraction | Change from GRMD Baseline (fraction): Galectin-4 (LGALS4): -0.0907 fraction | Change from GRMD Baseline (fraction): Galectin-7 (LGALS7): -0.1308 fraction | Change from GRMD Baseline (fraction): Glucose-6-phosphate isomerase (GPI): -0.4647 fraction | Change from GRMD Baseline (fraction): Glyceraldehyde-3-phosphate dehydrogenase (GAPDH): -0.5078 fraction | Change from GRMD Baseline (fraction): Glycogen synthase kinase-3 alpha/beta (GSK3A GSK3B): -0.3338 fraction | Change from GRMD Baseline (fraction): Granulocyte-macrophage colony-stimulating factor (CSF2): -0.2326 fraction | Change from GRMD Baseline (fraction): Growth factor receptor-bound protein 2 (GRB2): -0.3399 fraction | Change from GRMD Baseline (fraction): Growth/differentiation factor 5 (GDF5): -0.0403 fraction | Change from GRMD Baseline (fraction): Heat shock 70 kDa protein 1A (HSPA1A): -0.2859 fraction | Change from GRMD Baseline (fraction): Heat shock cognate 71 kDa protein (HSPA8): -0.3616 fraction | Change from GRMD Baseline (fraction): Heat shock protein HSP 90-alpha/beta (HSP90AA1 HSP90AB1): -0.1032 fraction | Change from GRMD Baseline (fraction): Heat shock protein HSP 90-beta (HSP90AB1): -0.0167 fraction | Change from GRMD Baseline (fraction): Heat shock protein beta-1 (HSPB1): -0.0454 fraction | Change from GRMD Baseline (fraction): Hepatoma-derived growth factor-related protein 2 (HDGFRP2): -0.0887 fraction | Change from GRMD Baseline (fraction): Heterogeneous nuclear ribonucleoprotein A/B (HNRNPAB): -0.2641 fraction | Change from GRMD Baseline (fraction): Heterogeneous nuclear ribonucleoprotein Q (SYNCRIP): -0.2959 fraction | Change from GRMD Baseline (fraction): Heterogeneous nuclear ribonucleoproteins A2/B1 (HNRNPA2B1): -0.2792 fraction | Change from GRMD Baseline (fraction): Hexokinase-2 (HK2): -0.2831 fraction | Change from GRMD Baseline (fraction): Histidine triad nucleotide-binding protein 1 (HINT1): -0.1184 fraction | Change from GRMD Baseline (fraction): Histone H1.2 (HIST1H1C): -0.2004 fraction | Change from GRMD Baseline (fraction): Histone deacetylase 8 (HDAC8): -0.1223 fraction | Change from GRMD Baseline (fraction): Homeodomain-interacting protein kinase 3 (HIPK3): 0.4673 fraction | Change from GRMD Baseline (fraction): Immunoglobulin superfamily containing leucine-rich repeat protein 2 (ISLR2): 0.163 fraction | Change from GRMD Baseline (fraction): Inducible T-cell costimulator (ICOS): -0.069 fraction | Change from GRMD Baseline (fraction): Inosine-5'-monophosphate dehydrogenase 2 (IMPDH2): -0.2973 fraction | Change from GRMD Baseline (fraction): Insulin-degrading enzyme (IDE): -0.2351 fraction | Change from GRMD Baseline (fraction): Insulin-like growth factor-binding protein 3 (IGFBP3): -0.1253 fraction | Change from GRMD Baseline (fraction): Intercellular adhesion molecule 5 (ICAM5): 0.2028 fraction | Change from GRMD Baseline (fraction): Interferon alpha-10 (IFNA10): 0.155 fraction | Change from GRMD Baseline (fraction): Interleukin-1 alpha (IL1A): -0.061 fraction | Change from GRMD Baseline (fraction): Interleukin-1 receptor-like 2 (IL1RL2): -0.0194 fraction | Change from GRMD Baseline (fraction): Interleukin-15 receptor subunit alpha (IL15RA): -0.1087 fraction | Change from GRMD Baseline (fraction): Interleukin-17F (IL17F): -0.0145 fraction | Change from GRMD Baseline (fraction): Interleukin-37 (IL37): -0.0864 fraction | Change from GRMD Baseline (fraction): Junctional adhesion molecule B (JAM2): -0.0925 fraction | Change from GRMD Baseline (fraction): Junctional adhesion molecule C (JAM3): -0.1846 fraction | Change from GRMD Baseline (fraction): Kallikrein-6 (KLK6): -0.0597 fraction | Change from GRMD Baseline (fraction): Kallikrein-12 (KLK12): 0.0192 fraction | Change from GRMD Baseline (fraction): Kallikrein-14 (KLK14): -0.165 fraction | Change from GRMD Baseline (fraction): Kin of IRRE-like protein 3 (KIRREL3): -0.0664 fraction | Change from GRMD Baseline (fraction): Kremen protein 2 (KREMEN2): -0.1517 fraction | Change from GRMD Baseline (fraction): Kynureninase (KYNU): -0.1154 fraction | Change from GRMD Baseline (fraction): L-Selectin (SELL): -0.2072 fraction | Change from GRMD Baseline (fraction): L-lactate dehydrogenase B chain (LDHB): -0.3998 fraction | Change from GRMD Baseline (fraction): Leucine-rich repeat serine/threonine-protein kinase 2 (LRRK2): -0.1394 fraction | Change from GRMD Baseline (fraction): Leucine-rich repeat transmembrane protein FLRT1 (FLRT1): -0.1359 fraction | Change from GRMD Baseline (fraction): Low affinity immunoglobulin epsilon Fc receptor (FCER2): -0.0521 fraction | Change from GRMD Baseline (fraction): MAP kinase-activated protein kinase 2 (MAPKAPK2): -0.3216 fraction | Change from GRMD Baseline (fraction): MAP kinase-activated protein kinase 3 (MAPKAPK3): -0.2837 fraction | Change from GRMD Baseline (fraction): Macrophage scavenger receptor types I and II (MSR1): -0.0382 fraction | Change from GRMD Baseline (fraction): Malate dehydrogenase, cytoplasmic (MDH1): -0.1486 fraction | Change from GRMD Baseline (fraction): Methionine aminopeptidase 2 (METAP2): -0.1671 fraction | Change from GRMD Baseline (fraction): Microtubule-associated protein tau (MAPT): -0.2425 fraction | Change from GRMD Baseline (fraction): Mitogen-activated protein kinase 3 (MAPK3): -0.2851 fraction | Change from GRMD Baseline (fraction): Mitogen-activated protein kinase 8 (MAPK8): -0.2995 fraction | Change from GRMD Baseline (fraction): Mitogen-activated protein kinase 12 (MAPK12): -0.3528 fraction | Change from GRMD Baseline (fraction): Mitogen-activated protein kinase 14 (MAPK14): -0.2706 fraction | Change from GRMD Baseline (fraction): Mothers against decapentaplegic homolog 3 (SMAD3): -0.0452 fraction | Change from GRMD Baseline (fraction): Myeloblastin (PRTN3): 0.0617 fraction | Change from GRMD Baseline (fraction): Myoglobin (MB): -0.422 fraction | Change from GRMD Baseline (fraction): Myosin-binding protein C, slow-type (MYBPC1): 0.1932 fraction | Change from GRMD Baseline (fraction): NKG2D ligand 2 (ULBP2): -0.0329 fraction | Change from GRMD Baseline (fraction): NSFL1 cofactor p47 (NSFL1C): -0.3479 fraction | Change from GRMD Baseline (fraction): Natural cytotoxicity triggering receptor 3 (NCR3): -0.0271 fraction | Change from GRMD Baseline (fraction): Neuronal cell adhesion molecule (NRCAM): 0.199 fraction | Change from GRMD Baseline (fraction): Neutral ceramidase (ASAH2): -0.1226 fraction | Change from GRMD Baseline (fraction): Nucleoside diphosphate kinase A (NME1): -0.3054 fraction | Change from GRMD Baseline (fraction): OCIA domain-containing protein 1 (OCIAD1): -0.019 fraction | Change from GRMD Baseline (fraction): Oncostatin-M (OSM): -0.0794 fraction | Change from GRMD Baseline (fraction): Opioid-binding protein/cell adhesion molecule (OPCML): -0.0946 fraction | Change from GRMD Baseline (fraction): PIK3CA/PIK3R1 (PIK3CA PIK3R1): -0.2992 fraction | Change from GRMD Baseline (fraction): Parathyroid hormone-related protein (PTHLH): -0.1165 fraction | Change from GRMD Baseline (fraction): Peptidyl-prolyl cis-trans isomerase E (PPIE): -0.2567 fraction | Change from GRMD Baseline (fraction): Peroxiredoxin-1 (PRDX1): -0.376 fraction | Change from GRMD Baseline (fraction): Peroxiredoxin-6 (PRDX6): -0.4044 fraction | Change from GRMD Baseline (fraction): Phosphatidylethanolamine-binding protein 1 (PEBP1): -0.1964 fraction | Change from GRMD Baseline (fraction): Phosphoglucomutase-1 (PGM1): -0.1676 fraction | Change from GRMD Baseline (fraction): Phosphoglycerate mutase 1 (PGAM1): 0.2377 fraction | Change from GRMD Baseline (fraction): Plasma serine protease inhibitor (SERPINA5): -0.1552 fraction | Change from GRMD Baseline (fraction): Platelet glycoprotein 4 (CD36): -0.0717 fraction | Change from GRMD Baseline (fraction): Platelet-activating factor acetylhydrolase (PLA2G7): -0.1993 fraction | Change from GRMD Baseline (fraction): Platelet-derived growth factor receptor alpha (PDGFRA): -0.052 fraction | Change from GRMD Baseline (fraction): Proliferating cell nuclear antigen (PCNA): -0.2439 fraction | Change from GRMD Baseline (fraction): Protein NOV homolog (NOV): -0.0815 fraction | Change from GRMD Baseline (fraction): Protein S100-A12 (S100A12): -0.0694 fraction | Change from GRMD Baseline (fraction): RAC-alpha/beta/gamma serine/threonine-protein kinase (AKT1 AKT2 AKT3): -0.3391 fraction | Change from GRMD Baseline (fraction): RAC-beta serine/threonine-protein kinase (AKT2): -0.2794 fraction | Change from GRMD Baseline (fraction): Rab GDP dissociation inhibitor beta (GDI2): -0.3851 fraction | Change from GRMD Baseline (fraction): Receptor tyrosine-protein kinase erbB-3 (ERBB3): 0.0234 fraction | Change from GRMD Baseline (fraction): Receptor-type tyrosine-protein kinase FLT3 (FLT3): -0.1824 fraction | Change from GRMD Baseline (fraction): Renin (REN): -0.0274 fraction | Change from GRMD Baseline (fraction): Retinoblastoma-associated protein (RB1): -0.0961 fraction | Change from GRMD Baseline (fraction): S-formylglutathione hydrolase (ESD): -0.2877 fraction | Change from GRMD Baseline (fraction): Serine/threonine-protein kinase 17B (STK17B): -0.0905 fraction | Change from GRMD Baseline (fraction): Serine/threonine-protein kinase Chk2 (CHEK2): 0.2279 fraction | Change from GRMD Baseline (fraction): Serine/threonine-protein kinase WNK3 (WNK3): -0.1692 fraction | Change from GRMD Baseline (fraction): Serine/threonine-protein kinase receptor R3 (ACVRL1): -0.0902 fraction | Change from GRMD Baseline (fraction): Small nuclear ribonucleoprotein F (SNRPF): -0.0313 fraction | Change from GRMD Baseline (fraction): Somatostatin-28 (SST): 0.1915 fraction | Change from GRMD Baseline (fraction): T-lymphocyte activation antigen CD80 (CD80): -0.0767 fraction | Change from GRMD Baseline (fraction): Thymic stromal lymphopoietin (TSLP): -0.0628 fraction | Change from GRMD Baseline (fraction): Thyroid peroxidase (TPO): -0.1126 fraction | Change from GRMD Baseline (fraction): Tissue factor pathway inhibitor (TFPI): 0.0479 fraction | Change from GRMD Baseline (fraction): Transcription factor AP-1 (JUN): -0.1004 fraction | Change from GRMD Baseline (fraction): Transketolase (TKT): -0.3602 fraction | Change from GRMD Baseline (fraction): Translationally-controlled tumor protein (TPT1): -0.3694 fraction | Change from GRMD Baseline (fraction): Triosephosphate isomerase (TPI1): -0.5129 fraction | Change from GRMD Baseline (fraction): Tropomyosin beta chain (TPM2): -0.0815 fraction | Change from GRMD Baseline (fraction): Troponin I, cardiac muscle (TNNI3): 0.0173 fraction | Change from GRMD Baseline (fraction): Troponin I, fast skeletal muscle (TNNI2): 0.1681 fraction | Change from GRMD Baseline (fraction): Troponin T, cardiac muscle (TNNT2): 0.0317 fraction | Change from GRMD Baseline (fraction): Tumor necrosis factor ligand superfamily member 11 (TNFSF11): -0.1211 fraction | Change from GRMD Baseline (fraction): Tumor necrosis factor receptor superfamily member 1B (TNFRSF1B): -0.1149 fraction | Change from GRMD Baseline (fraction): Tumor necrosis factor receptor superfamily member 3 (LTBR): -0.1112 fraction
